Laboratory results as given in article PMC10591299, “Targeting SHP2 with an Active Site Inhibitor Blocks Signaling and Breast Cancer Cell Phenotypes” (ACS Bio & Med Chem Au, 2023).
Read-outs that look alike come from different tables or passages of the source.

How the values were obtained:
SHP2 [1] = biological target: T1, SHP2 (Homo sapiens, UniProt Q06124); assay: PTPase assay, GST-fusion PTP domain of SHP2, DiFMUP substrate; format: biochemical; details: for fold difference: SHP2 IC50 relative to CNBCA
T1 construct: the GST fusion of the PTP domains of SHP2, SHP1, and PTP1B were produced and purified as reported by us previously; GST; made in house
T1 sequence (Q06124 247-517 limits assumed): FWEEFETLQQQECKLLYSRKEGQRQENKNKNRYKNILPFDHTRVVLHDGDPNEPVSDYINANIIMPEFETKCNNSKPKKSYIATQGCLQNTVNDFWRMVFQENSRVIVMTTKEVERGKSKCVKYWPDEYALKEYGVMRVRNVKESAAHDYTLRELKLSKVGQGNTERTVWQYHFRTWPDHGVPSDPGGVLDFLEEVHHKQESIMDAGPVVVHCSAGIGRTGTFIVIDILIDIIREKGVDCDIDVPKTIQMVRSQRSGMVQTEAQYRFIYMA
Description: After completion of synthesis, both CNBCA and CNBBA were purified on silica gel, and purity was determined by HPLC. The purified compounds were then tested for their effect on the SHP2 enzyme activity and on the activity of the selected control PTPs (SHP1 and PTP1B) by the phosphotyrosyl phosphatase (PTPase) assay as described previously.[30],[31] First, the GST fusion of the PTP domains of SHP2, SHP1, and PTP1B were produced and purified as reported by us previously.[32] The reactions were performed in a buffer containing 10 mM Tris-HCl (pH 7.2), 100 mM NaCl, 1 mM EDTA, 1 mM dithiothreitol (DTT), and 0.01% Tween-20. Briefly, CNBCA or CNBBA was added first in a serial dilution ranging from 100 μM to 97 nM followed by the enzymes (SHP2, SHP1, or PTP1B) to a final concentration of 1 nM. After 5 min of incubation at room temperature, the reactions were started by adding the artificial substrate DiFMUP (6,8-difluoro-4-methylumbelliferyl phosphate) to a final concentration of 20 μM for SHP2, 35 μM for SHP1, and 10 μM for PTP1B in a reaction volume of 100 μL; variations in DiFMUP concentrations reflect the reported Km values for the respective PTPs.[33] The complete mixture was incubated at 37 °C for 20 min, and fluorescence intensity was measured by the Synergy 4 plate reader at the excitation and emission wavelengths of 360 and 460 nm, respectively. The half inhibitory concentration (IC50) value of each compound was calculated and plotted using Graphpad Prism software.
We used the PTPase assay described previously[30],[31] to evaluate the effect of the newly synthesized compounds on the enzymatic activity of SHP2, SHP1, and PTP1B. The PTP domains of the indicated proteins were prepared as reported by us recently.[32] The artificial PTP substrate DiFMUP (6,8-Difluoro-4-Methylumbelliferyl Phosphate) was purchased from Invitrogen. The purified proteins were dialyzed into a phosphatase buffer containing 10 mM Tris-HCl ([…]), 100 mM NaCl, 1.0 mM EDTA, 1.0 mM dithiothreitol (DTT), and 0.01% Tween-20. Briefly, the PTPase reactions were performed in 100 μL volume containing 1 nM enzyme, inhibitors in serial dilutions (12 nM to 100 μM), and DiFMUP to a final concentration of 20 μM for SHP2, 35 μM for SHP1, and 10 μM for PTP1B. Differences in DiFMUP concentrations reflect the reported Km values for each PTP.[37] The mixtures were incubated at 37 °C for 20 min and transferred to 96 well plates, and the fluorescence intensity was measured by a Synergy 4 plate reader at the excitation and emission wavelengths of 360 and 460 nm, respectively. Graphpad Prism software was used to calculate the IC50 values.

SHP2 [2] = biological target: T1, SHP2; set-up: method as in PMID 33043190; details: previously published parent compound, included for comparison; cited from earlier work
SHP1 = biological target: T2, SHP1 (Homo sapiens, UniProt P29350); set-up: method as in PMID 33043190; details: previously shown; cited from earlier work
T2 construct: The GST fusion PTP domains of SHP1 and PTP1B were expressed and purified in a fashion similar to that of SHP2; GST; made in house
T2 sequence (P29350 244-515 limits assumed): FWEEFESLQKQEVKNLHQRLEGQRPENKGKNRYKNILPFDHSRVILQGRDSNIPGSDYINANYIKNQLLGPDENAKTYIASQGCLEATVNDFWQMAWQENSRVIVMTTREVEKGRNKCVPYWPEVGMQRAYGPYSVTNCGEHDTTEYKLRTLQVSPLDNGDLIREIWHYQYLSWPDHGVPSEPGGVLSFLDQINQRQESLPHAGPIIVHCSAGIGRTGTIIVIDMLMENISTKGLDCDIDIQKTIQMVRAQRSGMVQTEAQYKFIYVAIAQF

In the case of `CCCCCCCCCOc1ccc(-c2ccc(CC(=O)O)cc2)cc1CCCC(=O)O` [CNBBA, 4-(4′-(carboxymethyl)-4-(nonyloxy)-[1,1′-biphenyl]-3-yl) butanoic acid], the IC50 (SHP2 [1]; PTP domain, 1 nM enzyme, 20 μM DiFMUP, 37 °C 20 min) is reported as 5.1 µM and the fold difference (SHP2 [1]) is reported as 5.8 fold.
For `CCCCCCCCCOc1c(CCCC(=O)O)cc(-c2ccc(C(=O)O)cc2)cc1CCCC(=O)O` [CNBDA], the fold difference (SHP2 [1]) is listed as 5.7 fold, the IC50 (SHP2 [2]) is listed as 5 µM and the “selectivity for inhibition of SHP2 over SHP1” value (SHP1) is listed as “approximately 25 fold”.
